Reference: patent US20260250257A1, “ANTIBACTERIAL AND SYNERGISTIC ACTIVE COMPOUND AND USE THEREOF” (EAST CHINA UNIVERSITY OF SCIENCE AND TECHNOLOGY, priority 2023, published 2026)
In brackets after ≈: the same amount, converted by molar mass.

Assays:
Assay type in all cases: cell-based
[1] = system: ATCC9027 strain (Pseudomonas aeruginosa); experiment: Checkerboard antibacterial synergistic activity test with polymyxin E (FIC); design: key: FIC≤0.5 synergy; 0.5–1 additive; 1–2 indifferent; ≥2 antagonism; conditions: combined with polymyxin E
Summary of the method: (§1)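 Broth checkerboard synergy with colistin; listed dilutions are working solutions, not final well levels. Overnight incubation, 16 h at 37° C.; FIC ≤0.5 denotes synergy, ≥2 antagonism.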

[2] = system: ATCC25922 strain (Escherichia coli); experiment: as above; design: key: FIC≤0.5 synergy; 0.5–1 additive; 1–2 indifferent; ≥2 antagonism; conditions: combined with polymyxin E
Summary of the method: as §1

[3] = system: ATCC19606 strain (Acinetobacter baumannii); experiment: as above; design: key: FIC≤0.5 synergy; 0.5–1 additive; 1–2 indifferent; ≥2 antagonism; conditions: combined with polymyxin E
Summary of the method: as §1

[4] = system: ATCC13883 strain (Klebsiella pneumoniae); experiment: as above; design: key: FIC≤0.5 synergy; 0.5–1 additive; 1–2 indifferent; ≥2 antagonism; conditions: combined with polymyxin E
Summary of the method: as §1

[5] = system: ATCC9027 strain (Pseudomonas aeruginosa); experiment: Broth microdilution, antibacterial activity of the compound used alone
Source text: (§2) The broth microdilution method was used to test the antibacterial effects of the compounds of the present invention against various Gram-negative bacterial strains when used alone.

[6] = system: ATCC25922 strain (Escherichia coli); experiment: as above
Source text: as §2

[7] = system: ATCC19606 strain (Acinetobacter baumannii); experiment: as above
Source text: as §2

[8] = system: ATCC13883 strain (Klebsiella pneumoniae); experiment: as above
Source text: as §2

| SMILES | Synergistic activity (FIC value) ATCC9027 [1] | Synergistic activity (FIC value) ATCC25922 [2] | Synergistic activity (FIC value) ATCC19606 [3] | Synergistic activity (FIC value) ATCC13883 [4] | Antibacterial activity of the compound of Formula I, ATCC9027 [5] | Antibacterial activity of the compound of Formula I, ATCC25922 [6] | Antibacterial activity of the compound of Formula I, ATCC19606 [7] | Antibacterial activity of the compound of Formula I, ATCC13883 [8] | MIC ([5]; read-out: Antibacterial activity of the compound of Formula I, ATCC9027) | MIC ([6]; read-out: Antibacterial activity of the compound of Formula I, ATCC25922) | MIC ([7]; read-out: Antibacterial activity of the compound of Formula I, ATCC19606) | MIC ([8]; read-out: Antibacterial activity of the compound of Formula I, ATCC13883) |
| --- | --- | --- | --- | --- | --- | --- | --- | --- | --- | --- | --- | --- |
| Cc1sc(N=C2NCCCN2)nc1-c1ccccc1Oc1ccccc1Cl [Compound I-145] | 0.28 | 0.2 | 0.04 | 0.13 | 256 µg/mL | 256 µg/mL | 256 µg/mL | 256 µg/mL | – | – | – | – |
| Ic1cccc(-c2csc(N=C3NCCCN3)n2)c1 [Compound I-180] | 1.25 | 1.25 | 0.26 | 1.25 | 256 µg/mL | 256 µg/mL | 256 µg/mL | 256 µg/mL | – | – | – | – |
| NC(N)=Nc1nc(-c2ccccc2Oc2ccccc2I)cs1 [Compound I-86] | 0.04 | 0.04 | 0.38 | 0.19 | – | – | – | – | 256 µg/mL (≈ 587 µM) | 256 µg/mL (≈ 587 µM) | 256 µg/mL (≈ 587 µM) | 256 µg/mL (≈ 587 µM) |
| NC(N)=Nc1nc(-c2cc(Cl)cc(Oc3ccc(Cl)cc3Cl)c2)cs1 [Compound I-99] | 0.28 | 0.18 | 0.03 | 0.16 | 256 µg/mL | 256 µg/mL | 256 µg/mL | 256 µg/mL | – | – | – | – |
| CC(C)c1ccccc1-c1nc(N=C2NCCCN2)sc1Br [Compound I-164] | 0.62 | 0.39 | 0.15 | 0.33 | 256 µg/mL | 256 µg/mL | 256 µg/mL | 256 µg/mL | – | – | – | – |
| CS(=O)(=O)Oc1ccc(-c2coc(N=C(N)N)n2)cc1 [Compound I-28] | 0.51 | 1.25 | 1.25 | 1.25 | 256 µg/mL | 256 µg/mL | 256 µg/mL | 256 µg/mL | – | – | – | – |
| Cc1ccccc1Oc1ccccc1-c1nc(N=C2NCCCN2)oc1Cl [Compound I-142] | 0.06 | 0.14 | 0.31 | 0.09 | 256 µg/mL | 256 µg/mL | 256 µg/mL | 256 µg/mL | – | – | – | – |
| CC(=O)c1ccc(-c2csc(N=C(N)N)n2)cc1 [Compound I-24] | 1.25 | 1.25 | 0.5 | 1.25 | 256 µg/mL | 256 µg/mL | 256 µg/mL | 256 µg/mL | – | – | – | – |
